ChEMBL document CHEMBL3885881, “DrugMatrix”

Organism: Rattus norvegicus
Test: DrugMatrix - Regimen: Daily Repeat
Type: toxicity, organism-based, Sprague-Dawley
Design: regimen Daily Repeat, gender Male, age 6-8 weeks
Conditions: in vivo, 0 mg/kg, dose level Control, vehicle 100 % SALINE; for ABSOLUTE BASOPHIL / ABSOLUTE EOSINOPHIL / ABSOLUTE LYMPHOCYTE / ABSOLUTE MONOCYTE / ABSOLUTE SEGMENTED NEUTROPHIL / BASOPHIL / EOSINOPHIL / ERYTHROCYTE COUNT / HEMATOCRIT / HEMOGLOBIN / LEUKOCYTE COUNT / LYMPHOCYTE / MEAN CORPUSCULAR HEMOGLOBIN / MEAN CORPUSCULAR HEMOGLOBIN CONCENTRATION / MEAN CORPUSCULAR VOLUME / MONOCYTE / NEUTROPHIL / NUCLEATED RED BLOOD CELLS / PLATELET COUNT: tissue Blood; for ALANINE AMINOTRANSFERASE / ALBUMIN / ALKALINE PHOSPHATASE / ASPARTATE AMINOTRANSFERASE / BLOOD UREA NITROGEN / CARBON DIOXIDE / CHLORIDE / CHOLESTEROL / CREATINE PHOSPHOKINASE / CREATININE / GLUCOSE / LIPASE / PHOSPHORUS / POTASSIUM / SODIUM / TOTAL BILIRUBIN / TOTAL PROTEIN / URIC ACID: tissue Plasma
[1] = po, 72 h, route oral GAVAGE, time 3 day
[2] = po, 120 h, route oral GAVAGE, time 5 day

COc1cccc2c1C(=O)c1c(O)c3c(c(O)c1C2=O)C[C@@](O)(C(C)=O)C[C@@H]3O[C@H]1C[C@H](N)[C@H](O)[C@H](C)O1 [DAUNORUBICIN]
ABSOLUTE BASOPHIL (iv, 72 h, time 3 day): 0 CELLS/uL
ABSOLUTE EOSINOPHIL (iv, 72 h, time 3 day): 21.67 CELLS/uL
ABSOLUTE LYMPHOCYTE (iv, 72 h, time 3 day): 10193.67 CELLS/uL
ABSOLUTE MONOCYTE (iv, 72 h, time 3 day): 165.83 CELLS/uL
ABSOLUTE SEGMENTED NEUTROPHIL (iv, 72 h, time 3 day): 702.17 CELLS/uL
BASOPHIL (iv, 72 h, time 3 day): 0%
EOSINOPHIL (iv, 72 h, time 3 day): 0.17%
ERYTHROCYTE COUNT (iv, 72 h, time 3 day): 5.39 x10E6/uL
HEMATOCRIT (iv, 72 h, time 3 day): 34.62%
HEMOGLOBIN (iv, 72 h, time 3 day): 13.8 G/DL
LEUKOCYTE COUNT (iv, 72 h, time 3 day): 11.08 x10E3/uL
LYMPHOCYTE (iv, 72 h, time 3 day): 91.83%
MEAN CORPUSCULAR HEMOGLOBIN (iv, 72 h, time 3 day): 25.68 pg
MEAN CORPUSCULAR HEMOGLOBIN CONCENTRATION (iv, 72 h, time 3 day): 39.9 G/DL
MEAN CORPUSCULAR VOLUME (iv, 72 h, time 3 day): 64.37 fL
MONOCYTE (iv, 72 h, time 3 day): 1.5%
NEUTROPHIL (iv, 72 h, time 3 day): 6.5%
NUCLEATED RED BLOOD CELLS (iv, 72 h, time 3 day): 0 /100WBC
PLATELET COUNT (iv, 72 h, time 3 day): 1202.83 x10E3/uL
ALANINE AMINOTRANSFERASE (iv, 72 h, time 3 day): 55.5 u/L
ALBUMIN (iv, 72 h, time 3 day): 4.22 G/DL
ALKALINE PHOSPHATASE (iv, 72 h, time 3 day): 406.83 u/L
ASPARTATE AMINOTRANSFERASE (iv, 72 h, time 3 day): 101.5 u/L
BLOOD UREA NITROGEN (iv, 72 h, time 3 day): 13.5 mg/dL
CARBON DIOXIDE (iv, 72 h, time 3 day): 30.33 mmol/L
CHLORIDE (iv, 72 h, time 3 day): 102.17 MEQ/L
CHOLESTEROL (iv, 72 h, time 3 day): 63.67 mg/dL
CREATINE PHOSPHOKINASE (iv, 72 h, time 3 day): 732.67 u/L
CREATININE (iv, 72 h, time 3 day): 0.2 mg/dL
GLUCOSE (iv, 72 h, time 3 day): 157 mg/dL
LIPASE (iv, 72 h, time 3 day): 10.83 u/L
PHOSPHORUS (iv, 72 h, time 3 day): 12.68 mg/dL
POTASSIUM (iv, 72 h, time 3 day): 5.67 MEQ/L
SODIUM (iv, 72 h, time 3 day): 144 MEQ/L
TOTAL BILIRUBIN (iv, 72 h, time 3 day): 0.15 mg/dL
TOTAL PROTEIN (iv, 72 h, time 3 day): 6.02 G/DL
URIC ACID (iv, 72 h, time 3 day): 1.55 mg/dL
ABSOLUTE BASOPHIL (iv, 120 h, time 5 day): 0 CELLS/uL
ABSOLUTE EOSINOPHIL (iv, 120 h, time 5 day): 17 CELLS/uL
ABSOLUTE LYMPHOCYTE (iv, 120 h, time 5 day): 11849.17 CELLS/uL
ABSOLUTE MONOCYTE (iv, 120 h, time 5 day): 69.83 CELLS/uL
ABSOLUTE SEGMENTED NEUTROPHIL (iv, 120 h, time 5 day): 730.67 CELLS/uL
BASOPHIL (iv, 120 h, time 5 day): 0%
EOSINOPHIL (iv, 120 h, time 5 day): 0.17%
ERYTHROCYTE COUNT (iv, 120 h, time 5 day): 5.93 x10E6/uL
HEMATOCRIT (iv, 120 h, time 5 day): 37.42%
HEMOGLOBIN (iv, 120 h, time 5 day): 14.4 G/DL
LEUKOCYTE COUNT (iv, 120 h, time 5 day): 12.67 x10E3/uL
LYMPHOCYTE (iv, 120 h, time 5 day): 93.17%
MEAN CORPUSCULAR HEMOGLOBIN (iv, 120 h, time 5 day): 24.32 pg
MEAN CORPUSCULAR HEMOGLOBIN CONCENTRATION (iv, 120 h, time 5 day): 38.5 G/DL
MEAN CORPUSCULAR VOLUME (iv, 120 h, time 5 day): 63.08 fL
MONOCYTE (iv, 120 h, time 5 day): 0.5%
NEUTROPHIL (iv, 120 h, time 5 day): 6.17%
NUCLEATED RED BLOOD CELLS (iv, 120 h, time 5 day): 0 /100WBC
PLATELET COUNT (iv, 120 h, time 5 day): 1170.5 x10E3/uL
ALANINE AMINOTRANSFERASE (iv, 120 h, time 5 day): 51 u/L
ALBUMIN (iv, 120 h, time 5 day): 4.12 G/DL
ALKALINE PHOSPHATASE (iv, 120 h, time 5 day): 392.67 u/L
ASPARTATE AMINOTRANSFERASE (iv, 120 h, time 5 day): 81.67 u/L
BLOOD UREA NITROGEN (iv, 120 h, time 5 day): 16.17 mg/dL
CARBON DIOXIDE (iv, 120 h, time 5 day): 30.67 mmol/L
CHLORIDE (iv, 120 h, time 5 day): 100.5 MEQ/L
CHOLESTEROL (iv, 120 h, time 5 day): 64.83 mg/dL
CREATINE PHOSPHOKINASE (iv, 120 h, time 5 day): 242.67 u/L
CREATININE (iv, 120 h, time 5 day): 0.2 mg/dL
GLUCOSE (iv, 120 h, time 5 day): 186.83 mg/dL
LIPASE (iv, 120 h, time 5 day): 10.83 u/L
PHOSPHORUS (iv, 120 h, time 5 day): 11.67 mg/dL
POTASSIUM (iv, 120 h, time 5 day): 5.51 MEQ/L
SODIUM (iv, 120 h, time 5 day): 142.55 MEQ/L
TOTAL BILIRUBIN (iv, 120 h, time 5 day): 0.22 mg/dL
TOTAL PROTEIN (iv, 120 h, time 5 day): 6.08 G/DL
URIC ACID (iv, 120 h, time 5 day): 1.85 mg/dL
ABSOLUTE BASOPHIL [1]: 140 cells/µL
ABSOLUTE EOSINOPHIL [1]: 43.3 cells/µL
ABSOLUTE LYMPHOCYTE [1]: 7570 cells/µL
ABSOLUTE MONOCYTE [1]: 160 cells/µL
BASOPHIL [1]: 1.47%
EOSINOPHIL [1]: 0.47%
ERYTHROCYTE COUNT [1]: 6.68 x10E6/uL
HEMATOCRIT [1]: 44.33%
HEMOGLOBIN [1]: 14.43 G/DL
LEUKOCYTE COUNT [1]: 9.33 x10E3/uL
LYMPHOCYTE [1]: 81.23%
MEAN CORPUSCULAR HEMOGLOBIN [1]: 21.67 pg
MEAN CORPUSCULAR HEMOGLOBIN CONCENTRATION [1]: 32.6 G/DL
MEAN CORPUSCULAR VOLUME [1]: 66.43 fL
MONOCYTE [1]: 1.73%
NEUTROPHIL [1]: 14.7%
PLATELET COUNT [1]: 1341.67 x10E3/uL
ALANINE AMINOTRANSFERASE [1]: 31 u/L
ALBUMIN [1]: 4.03 G/DL
ALKALINE PHOSPHATASE [1]: 447 u/L
ASPARTATE AMINOTRANSFERASE [1]: 61.33 u/L
BLOOD UREA NITROGEN [1]: 15.67 mg/dL
CARBON DIOXIDE [1]: 43 mmol/L
CHLORIDE [1]: 103.33 MEQ/L
CHOLESTEROL [1]: 83.67 mg/dL
CREATINE PHOSPHOKINASE [1]: 174.33 u/L
CREATININE [1]: 0.4 mg/dL
GLUCOSE [1]: 173 mg/dL
LIPASE [1]: 17.33 u/L
PHOSPHORUS [1]: 10.27 mg/dL
POTASSIUM [1]: 6.47 MEQ/L
SODIUM [1]: 143.67 MEQ/L
TOTAL BILIRUBIN [1]: 0.37 mg/dL
TOTAL PROTEIN [1]: 6.63 G/DL
URIC ACID [1]: 1.03 mg/dL
ABSOLUTE BASOPHIL [2]: 53.3 cells/µL
ABSOLUTE EOSINOPHIL [2]: 210 cells/µL
ABSOLUTE LYMPHOCYTE [2]: 8220 cells/µL
ABSOLUTE MONOCYTE [2]: 200 cells/µL
BASOPHIL [2]: 0.53%
EOSINOPHIL [2]: 2.1%
ERYTHROCYTE COUNT [2]: 7 x10E6/uL
HEMATOCRIT [2]: 44%
HEMOGLOBIN [2]: 14.53 G/DL
LEUKOCYTE COUNT [2]: 10.44 x10E3/uL
LYMPHOCYTE [2]: 78.07%
MEAN CORPUSCULAR HEMOGLOBIN [2]: 20.77 pg
MEAN CORPUSCULAR HEMOGLOBIN CONCENTRATION [2]: 33 G/DL
MEAN CORPUSCULAR VOLUME [2]: 62.87 fL
MONOCYTE [2]: 1.87%
NEUTROPHIL [2]: 16.8%
PLATELET COUNT [2]: 1104.33 x10E3/uL
ALANINE AMINOTRANSFERASE [2]: 31.67 u/L
ALBUMIN [2]: 3.93 G/DL
ALKALINE PHOSPHATASE [2]: 394.67 u/L
ASPARTATE AMINOTRANSFERASE [2]: 65.67 u/L
BLOOD UREA NITROGEN [2]: 15.67 mg/dL
CARBON DIOXIDE [2]: 40.67 mmol/L
CHLORIDE [2]: 104.33 MEQ/L
CHOLESTEROL [2]: 66.33 mg/dL
CREATINE PHOSPHOKINASE [2]: 346.67 u/L
CREATININE [2]: 0.33 mg/dL
GLUCOSE [2]: 176.67 mg/dL
LIPASE [2]: 14.33 u/L
PHOSPHORUS [2]: 11.17 mg/dL
POTASSIUM [2]: 6.53 MEQ/L
SODIUM [2]: 146 MEQ/L
